# According to patent US7342033B2 (Vereniging Voor Christelijk Wetenschappelijk Onderwijs, priority 1999, dated 2008):
# Tested on: multiple sclerosis patients
# Test: Adverse events and tolerability in the same study
# Type: in vivo, human
# Source text: We selected 9 women and 7 men (aged 30-66 years) with documented progression during the 24 months before inclusion, from a natural history study. Kurtzke's EDSS scores were between 3.0 (inclusive) and 7.5 (inclusive). All adverse events were documented; safety lab consisted of serum transaminases (monthly for 3 months and every 3 months thereafter) and hematology (CBC and differential every 6 months) after the start of treatment. The study was approved by the hospital ethics committee, and all patients gave informed consent.
smiles,measurement,setting,value
"Nc1nc2ccc(OC(F)(F)F)cc2s1 [riluzole, (6-trifluoromethoxy)-2-benzothiazolamine)]",Medically severe adverse effects,14 patients who took medication for over three months,not observed
same,Patients who needed intermittent reduction in dosage of study drug,"of 16 patients, riluzole 2×50 mg daily",Five
same,Patients who discontinued treatment because of side effects,"of 16 patients, headache in one, increase in spasticity in the other",Two
